Data: patent US9930890B2 (priority 2010, dated 2018)

Legend:
Phytophthora infestans = type: in vivo; settings: tomato plants, protective spray, active ingredient concentration 100 ppm, evaluation 7 days after inoculation; 0% = control, 100% = no infection
Plasmopara viticola = test: Plasmopara test (grapevine)/protective; type: in vivo; settings: grapevine young plants, protective spray, active ingredient concentration 10 ppm, evaluation 6 days after inoculation; 0% = control, 100% = no infection
Protocol: Plasmopara Test (Grapevine)/Protective
To produce an appropriate active ingredient formulation, 1 part by weight of active ingredient is mixed with the specified amounts of solvent and emulsifier, and the concentrate is diluted with water to the desired concentration.
To test for protective efficacy, young plants are sprayed with the active ingredient formulation at the stated application rate. After the spray coating has dried on, the plants are inoculated with an aqueous spore suspension of Plasmopara viticola and then remain in an incubation cabin at approx. 20° C. and 100% relative air humidity for 1 day. Subsequently, the plants are placed in a greenhouse at approx. 21° C. and approx. 90% air humidity for 4 days. The plants are then moistened and placed in an incubation cabin for 1 day.
Evaluation follows 6 days after the inoculation. 0% means an efficacy which corresponds to that of the control, whereas an efficacy of 100% means that no infection is observed.
In this test, the following inventive compounds show, at an active ingredient concentration of 10 ppm, an efficacy of 70% or more: […]

[1] = for logp [a]: pH 2.7; for logp [b]: pH 7.8

SMILES	Eff. % (Phytophthora infestans) [%]	Eff. % (Plasmopara viticola) [%]	logp [a] [1]	logp [b] [1]
N#CCOc1ccccc1C1CC(c2csc(C3CCN(C(=O)Cn4nc(C(F)F)cc4C(F)F)CC3)n2)=NO1 (stereo not drawn) [I-63]	94	100	3[a],	2.91[b]
O=C(Cn1nc(C(F)F)cc1C(F)F)N1CCC(c2nc(C3=NOC(c4ccccc4OS(=O)(=O)C4CC4)C3)cs2)CC1 (stereo not drawn) [I-64]	100	100	3.24[a],	3.32[b]
Cc1ccc(C)c(NC(=O)N2CCC(c3nc(C4=NOC(c5ccccc5OS(C)(=O)=O)C4)cs3)CC2)c1 (stereo not drawn) [I-74]	100	100	3.08[a],	3.03[b]
Cc1cc(C(F)F)nn1CC(=O)N1CCC(c2nc(C3=NOC(c4ccccc4OCC#N)C3)cs2)CC1 (stereo not drawn) [I-76]	100	93	2.7[a],	2.62[b]
CCS(=O)(=O)Oc1cccc(C2CC(c3csc(C4CCN(C(=O)Cn5nc(C(F)F)cc5C(F)F)CC4)n3)=NO2)c1 (stereo not drawn) [I-77]	98	93	3.08[a],	2.99[b]
Cc1cc(C(F)(F)F)nn1CC(=O)N1CCC(c2nc(C3=NOC(c4c(Cl)cccc4OCC#N)C3)cs2)CC1 (stereo not drawn) [I-78]	80	97	3.31[a],	3.23[b]
N#CCOc1ccc(C2CC(c3csc(C4CCN(C(=O)Cn5nc(C(F)F)cc5C(F)F)CC4)n3)=NO2)cc1 (stereo not drawn) [I-81]	100	99	2.89[a],	2.8[b]
C/C=C/C(=O)Oc1ccccc1C1CC(c2csc(C3CCN(C(=O)Cn4nc(C(F)F)cc4C(F)F)CC3)n2)=NO1 (stereo not drawn) [I-82]	70	94	3.46[a],	3.37[b]
O=C(Cn1nc(C(F)F)cc1C(F)F)N1CCC(c2nc(C3=NOC(c4cccc(OS(=O)(=O)C5CC5)c4)C3)cs2)CC1 (stereo not drawn) [I-83]	98	94	3.17[a],	3.07[b]
O=C(Cn1nc(C(F)F)cc1C(F)F)N1CCC(c2nc(C3=NOC(c4cc(F)ccc4OS(=O)(=O)C4CC4)C3)cs2)CC1 (stereo not drawn) [I-84]	90	100	3.32[a],	3.35[b]
CS(=O)(=O)Oc1c(F)cccc1C1CC(c2csc(C3CCN(C(=O)Cn4nc(C(F)F)cc4C(F)F)CC3)n2)=NO1 (stereo not drawn) [I-85]	75	100	2.97[a],	2.91[b]
Cc1cc(C(F)(F)F)nn1CC(=O)N1CCC(c2nc(C3=NOC(c4c(F)cccc4OCC#N)C3)cs2)CC1 (stereo not drawn) [I-86]	75	99	3.05[a],	2.94[b]
N#CCCn1cccc1C1CC(c2csc(C3CCN(C(=O)Cn4nc(C(F)F)cc4C(F)F)CC3)n2)=NO1 (stereo not drawn) [I-87]	80	95	2.71[a],	2.64[b]
CS(=O)(=O)Oc1cccc(Cl)c1C1CC(c2csc(C3CCN(C(=O)Cn4nc(C(F)F)cc4C(F)F)CC3)n2)=NO1 (stereo not drawn) [I-102]	75	100	3.2[a],	3.09[b]
Cc1cc(C(F)(F)F)nn1CC(=O)N1CCC(c2nc(C3=NOC(c4c(Cl)cccc4OS(C)(=O)=O)C3)cs2)CC1 (stereo not drawn) [I-103]	80	100	3.28[a],	3.2[b]
O=CNc1ccccc1C1CC(c2csc(C3CCN(C(=O)Cn4nc(C(F)F)cc4C(F)F)CC3)n2)=NO1 (stereo not drawn) [I-108]	100	93	2.42[a],	2.32[b]
CSCOc1ccccc1C1CC(c2csc(C3CCN(C(=O)Cn4nc(C(F)F)cc4C(F)F)CC3)n2)=NO1 (stereo not drawn) [I-112]	94	100	3.49[a],	3.56[b]
N#CCOc1cccc(F)c1C1CC(c2csc(C3CCN(C(=O)Cn4nc(C(F)F)cc4C(F)F)CC3)n2)=NO1 (stereo not drawn) [I-113]	85	100	2.87[a],	2.88[b]
Cc1cc(C(F)(F)F)nn1CC(=O)N1CCC(c2nc(C3=NOC(c4cccc(F)c4OS(=O)(=O)C4CC4)C3)cs2)CC1 (stereo not drawn) [I-114]	94	100	3.43[a],	3.42[b]

SMILES	Eff. % (Phytophthora infestans) [%]	Eff. % (Plasmopara viticola) [%]	logp [a] [1]	logp [b] [1]
O=C(Cn1nc(C(F)F)cc1C(F)F)N1CCC(c2nc(C3=NOC(c4ccccc4OS(=O)(=O)C(F)(F)F)C3)cs2)CC1 (stereo not drawn) [I-115]	88	100	3.92[a],	3.92[b]
C=CC(=O)Oc1ccccc1C1CC(c2csc(C3CCN(C(=O)Cn4nc(C(F)F)cc4C(F)F)CC3)n2)=NO1 (stereo not drawn) [I-116]	98	100	3.21[a],	3.15[b]
C#CCN(C=O)c1ccccc1C1CC(c2csc(C3CCN(C(=O)Cn4nc(C(F)F)cc4C(F)F)CC3)n2)=NO1 (stereo not drawn) [I-117]	79	96	2.65[a],	2.67[b]
CCS(=O)(=O)Oc1ccccc1C1CC(c2csc(C3CCN(C(=O)Cn4nc(C(F)(F)F)cc4C)CC3)n2)=NO1 (stereo not drawn) [I-119]	89	100	3.19[a],	3.21[b]
CSCOc1ccccc1C1CC(c2csc(C3CCN(C(=O)Cn4nc(C(F)(F)F)cc4C)CC3)n2)=NO1 (stereo not drawn) [I-120]	89	95	3.59[a],	3.59[b]
N#CCN(C=O)c1ccccc1C1CC(c2csc(C3CCN(C(=O)Cn4nc(C(F)F)cc4C(F)F)CC3)n2)=NO1 (stereo not drawn) [I-121]	100	98	2.62[a],	2.55[b]
O=CNc1ccccc1C1CC(c2csc(C3CCN(C(=O)Nc4cc(C(F)F)ccc4C(F)F)CC3)n2)=NO1 (stereo not drawn) [I-122]	97	89	2.63[a],	2.54[b]
O=CNc1ccccc1C1CC(c2csc(C3CCN(C(=O)Cc4cc(C(F)F)ccc4C(F)F)CC3)n2)=NO1 (stereo not drawn) [I-123]	100	73	2.74[a],	2.64[b]
Cc1cc(C(F)(F)F)nn1CC(=O)N1CCC(c2nc(C3=NOC(c4ccccc4OS(=O)(=O)C(F)(F)F)C3)cs2)CC1 (stereo not drawn) [I-125]	89	100	3.99[a],	4[b]
CN(C)C(=S)c1ccccc1C1CC(c2csc(C3CCN(C(=O)Cn4nc(C(F)F)cc4C(F)F)CC3)n2)=NO1 (stereo not drawn) [I-127]	97	96	3.11[a],	3.06[b]
COC(=O)COc1ccc(C2CC(c3csc(C4CCN(C(=O)Cn5nc(C(F)F)cc5C(F)F)CC4)n3)=NO2)cc1 (stereo not drawn) [I-128]	90	93	2.89[a],	2.87[b]
O=C(Oc1ccccc1C1CC(c2csc(C3CCN(C(=O)Cn4nc(C(F)F)cc4C(F)F)CC3)n2)=NO1)c1cccc(F)c1 (stereo not drawn) [I-129]	98	98	3.76[a],	3.7[b]
O=C(Oc1ccccc1C1CC(c2csc(C3CCN(C(=O)Cn4nc(C(F)F)cc4C(F)F)CC3)n2)=NO1)c1ccccc1F (stereo not drawn) [I-130]	100	100	3.61[a],	3.58[b]
O=C(Oc1ccccc1C1CC(c2csc(C3CCN(C(=O)Cn4nc(C(F)F)cc4C(F)F)CC3)n2)=NO1)c1ccccc1 (stereo not drawn) [I-131]	100	94	3.69[a],	3.65[b]
O=C(Oc1ccccc1C1CC(c2csc(C3CCN(C(=O)Cn4nc(C(F)F)cc4C(F)F)CC3)n2)=NO1)c1ccc(F)cc1 (stereo not drawn) [I-132]	100	96	3.73[a],	3.7[b]
C[Si](C)(C)C#Cc1ccccc1C1CC(c2csc(C3CCN(C(=O)Cn4nc(C(F)F)cc4C(F)F)CC3)n2)=NO1 (stereo not drawn) [I-133]	100	85	4.78[a],	4.79[b]
C#CCOCc1ccccc1C1CC(c2csc(C3CCN(C(=O)Cn4nc(C(F)F)cc4C(F)F)CC3)n2)=NO1 (stereo not drawn) [I-138]	93	98	3.74[a]	–
Cc1cc(C(F)(F)F)nn1CC(=O)N1CCC(c2nc(C3=NOC(c4ccccc4OCC#N)C3)cs2)CC1 (stereo not drawn) [I-140]	84	100	2.97[a],	2.98[b]
